How the values were obtained:
[1] = system: phenylquinone writhing in mice; assay: Phenylquinone writhing test; format: in vivo, female white mice; details: Mus musculus, 0.5 h; fasted female mice, oral; phenylquinone i.p. 24 minutes later; observed for 10 minutes from 30 minutes after dosing; read-out: Analgesic Phenylquinone Writhing ED50
Experimental: PHENYLQUINONE WRITHING TEST
The phenylquinone writhing test, modified from Siegmund, et al., Proc. Soc. Exp. Biol. Med., 95, 729 (1957), was employed. A test compound suspended in 1% methylcellulose was given orally to fasted (17-21 hours) female white mice, 5-20 animals per double blind test. Aqueous (0.01% phenyl-p-benzoquinone) phenylquinone was injected intraperitoneally 24 minutes later using 0.20 ml per mouse. […] The effective analgesic dose for 50% of the mice (ED50) was calculated by the moving average method of Thompson, W. R., Bact. Rev., 11, 115-145 (1947).

[2] = system: adjuvant-induced arthritis in rats; assay: Established Adjuvant-Induced Arthritis in Rats; format: in vivo, Lewis (Wistar) male rats; details: rat; for ED50: oral gavage once daily for 7 days (days 14-20), paw volume of uninjected left hind paw on day 21, ED50 % estimated by inspection, read-out: Adjuvant Arthritic ED 50; for Percent decrease from control mean paw volume (in parentheses after the ED50 bound): oral once daily for 7 days, presumably at the bounding dose

NC(c1cc(-c2ccc(F)cc2)c(-c2ccc(F)cc2)[nH]1)(C(F)(F)F)C(F)(F)F [Example 1, 4,5-Bis(4-fluorophenyl)-α,α-bis(trifluoromethyl)-1H-pyrrole-2-methanamine]
ED50 [1]: 27 mg/kg | ED50 [2]: 0.45 mg/kg

NC(c1cc(-c2ccc(F)cc2)c(-c2ccc(F)cc2)[nH]1)C(F)(F)F (stereo not drawn) [Example 2, 4,5-Bis(4-fluorophenyl)-α-(trifluoromethyl)-1H-pyrrole-2-methanamine]
ED50 [2]: > 25 mg/kg | Percent decrease from control mean paw volume (in parentheses after the ED50 bound) ([2]; 25 mg/kg): 29%

Cn1c(C(N)(C(F)(F)F)C(F)(F)F)cc(-c2ccc(F)cc2)c1-c1ccc(F)cc1 [Example 3]
ED50 [1]: > 108 mg/kg | ED50 [2]: 2.6 mg/kg

COc1ccc(-c2cc(C(N)(C(F)(F)F)C(F)(F)F)[nH]c2-c2ccc(OC)cc2)cc1 [Example 4]
ED50 [1]: 45 mg/kg | ED50 [2]: 3.3 mg/kg

CNC(c1cc(-c2ccc(F)cc2)c(-c2ccc(F)cc2)[nH]1)(C(F)(F)F)C(F)(F)F [Example 5, 4,5-Bis(4-fluorophenyl)-N-methyl-α,α-di(trifluoromethyl)-1H-pyrrole-2-methanamine]
ED50 [1]: > 108 mg/kg | ED50 [2]: 0.8 mg/kg

NC(c1cc(-c2ccc(F)cc2)c(-c2ccc(Br)cc2)[nH]1)(C(F)(F)F)C(F)(F)F [Example 6]
ED50 [1]: > 108 mg/kg | ED50 [2]: 3.4 mg/kg

Cc1ccc(-c2cc(C(N)(C(F)(F)F)C(F)(F)F)[nH]c2-c2ccc(C)cc2)cc1 [Example 7]
ED50 [1]: > 108 mg/kg | ED50 [2]: > 9 mg/kg | Percent decrease from control mean paw volume (in parentheses after the ED50 bound) ([2]; 9 mg/kg): 45%

Cc1c(C(N)(C(F)(F)F)C(F)(F)F)[nH]c(-c2ccc(F)cc2)c1-c1ccc(F)cc1 [Example 8]
ED50 [1]: > 108 mg/kg | ED50 [2]: 0.77 mg/kg

CN(C)c1ccc(-c2[nH]c(C(N)(C(F)(F)F)C(F)(F)F)cc2-c2ccc(F)cc2)cc1 [Example 9]
ED50 [1]: > 108 mg/kg | ED50 [2]: 4.9 mg/kg

NC(c1cc(-c2ccc(Cl)cc2)c(-c2ccc(Cl)cc2)[nH]1)(C(F)(F)F)C(F)(F)F [Example 10]
ED50 [1]: > 108 mg/kg | ED50 [2]: 4.4 mg/kg

NC(c1cc(-c2ccccc2)c(-c2ccccc2)[nH]1)(C(F)(F)F)C(F)(F)F [Example 11]
ED50 [1]: > 108 mg/kg | ED50 [2]: 20 mg/kg

NC(c1cc(-c2ccc(F)cc2)c(-c2cccnc2)[nH]1)(C(F)(F)F)C(F)(F)F [Example 12]
ED50 [1]: > 108 mg/kg | ED50 [2]: 12.5 mg/kg

NC(c1cc(-c2ccc(F)cc2)c(-c2ccc(F)cc2)n1Cc1ccccc1)(C(F)(F)F)C(F)(F)F [Example 13]
ED50 [1]: > 108 mg/kg | ED50 [2]: > 25 mg/kg | Percent decrease from control mean paw volume (in parentheses after the ED50 bound) ([2]; 25 mg/kg): 24%

CNC(c1cc(-c2ccc(F)cc2)c(-c2ccc(F)cc2)n1C)(C(F)(F)F)C(F)(F)F [Example 14, 4,5-Bis(4-fluorophenyl)-N,1-dimethyl-α,α-di(trifluoromethyl)-1H-pyrrole-2-methanamine]
ED50 [1]: > 108 mg/kg | ED50 [2]: 1 mg/kg

NC(c1cc(-c2ccc(F)cc2)c(-c2ccc(F)cc2)[nH]1)(C(F)(F)F)C(F)(F)Cl (stereo not shown) [Example 15]
ED50 [2]: 0.7 mg/kg
